Patent publication US20150174095A1, “PHARMACEUTICAL COMPOSITIONS FOR THE TREATMENT OF VISUAL SYSTEM DISORDERS” (Allergan, Inc., priority 2013, published 2015)
pIC50: −log10 of the molar value.

Columns and labels:
[1] = target: T1, human ASCT2 (Homo sapiens, UniProt Q15758); assay: Whole cell patch-clamp transport currents in HEK cells expressing human ASCT2; format: cell-based; settings: for effect on substrate-evoked inward current: HEK ASCT2, with 0.3 mM L-serine; for current in the absence of applied substrate: HEK ASCT2, without L-serine
T1 construct: expressed in transfected cells; host or cells: HEK293 cells stably expressing ASCT2
T1 sequence (Q15758 1-541): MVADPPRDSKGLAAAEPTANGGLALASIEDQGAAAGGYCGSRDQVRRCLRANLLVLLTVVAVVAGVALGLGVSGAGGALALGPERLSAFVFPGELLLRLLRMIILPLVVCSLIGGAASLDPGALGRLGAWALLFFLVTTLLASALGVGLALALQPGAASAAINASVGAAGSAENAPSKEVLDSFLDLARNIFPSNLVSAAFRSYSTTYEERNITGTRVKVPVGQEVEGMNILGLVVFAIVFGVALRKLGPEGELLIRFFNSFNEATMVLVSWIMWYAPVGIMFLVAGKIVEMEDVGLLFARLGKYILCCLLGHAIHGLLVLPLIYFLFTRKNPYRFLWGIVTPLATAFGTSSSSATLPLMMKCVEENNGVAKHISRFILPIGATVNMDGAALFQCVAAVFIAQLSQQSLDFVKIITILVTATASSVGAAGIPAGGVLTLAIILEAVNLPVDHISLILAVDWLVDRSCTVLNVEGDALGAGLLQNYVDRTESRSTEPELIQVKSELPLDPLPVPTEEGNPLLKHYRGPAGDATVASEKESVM
Protocol: (§1) Patch-Clamp Recording in HEK 293 Cells (FIGS. 1A, 1B, 2A and 2B):
(§2) Transport currents were recorded in human embryonic kidney (HEK) cells expressing human ASCT1 or ASCT2 transporter using whole cell patch-clamp. Extracellular solution contains: 140 mM NaCl, 2.0 mM MgCl2, 2.0 CaCl2, 10 mM HEPES, pH 7.4. The recording pipettes were filled with ICM containing: 130 mM NaSCN, 10 mM EGTA, 2 mM MgCl2, 10 mM HEPES, 10 mM L-alanine pH 7.3. The inhibitory effects of compounds were measured without/with 300 μM L-serine and normalized to these by 4-hydroxy-phenyglycine (100%).

[2] = target: T1, human ASCT2; assay: [3H]L-serine transport into HEK cells expressing recombinant human ASCT2; format: cell-based; settings: inhibition of [3H]L-serine transport, HEK cells with human ASCT2, n of 3-4; read-out: HEK1A5 ASCT2 IC50
Protocol: (§3) Cell-based assays: the transport of [^3H]L- or D-serine was measured in primary cultures of rat hippocampal astrocytes or in human embryonic kidney (HEK) cells expressing ASCT transporter sub-types. For the astrocyte assays, cells were plated on either 24- or 96-well plates at a density of 50,000 cells per well. For the HEK assays, cells were plated on coated 96-well plates at a density of 80,000 cells/well. Assays were conducted in duplicate at room temperature in assay buffer consisting of: NaCl: 150 mM, KCl: 2 mM; MgCl2: 1 mM; CaCl2: 1 mM; HEPES: Tris buffer: 10 mM, pH7.4. To assess the sodium-dependence of transport, NaCl was replaced in the assay buffer by equimolar choline chloride. Following aspiration of growth medium and 2 washes with assay buffer, cells were incubated with [^3H]L- or D-serine at a final concentration of 1 μM for 5 min (astrocytes) or 1 min (HEK cells), after which the incubation medium was aspirated and the cells washed twice with ice-cold assay buffer. Cells containing radiolabel were solubilized in 100 μl of 1% Triton-X100 and an aliquot counted in a beta counter. IC50 values were determined over a range of at least 6 concentrations and derived from curve-fitting algorithms available in GraphPad Prism 4. Table 2 reflects the IC50 values for the inhibition of [^3H]L-serine transport into astrocytes and HEK cells expressing recombinant human ASCT1 or ASCT2. […]

[3] = target: T2, human ASCT1 (Homo sapiens, UniProt P43007); assay: [3H]L-serine transport into HEK cells expressing recombinant human ASCT1; format: cell-based; settings: inhibition of [3H]L-serine transport, HEK cells with human ASCT1, n of 3-4; read-out: HEK1A4 ASCT1 IC50
T2 construct: expressed in transfected cells; host or cells: HEK293 cells stably expressing ASCT1
T2 sequence (P43007 1-532): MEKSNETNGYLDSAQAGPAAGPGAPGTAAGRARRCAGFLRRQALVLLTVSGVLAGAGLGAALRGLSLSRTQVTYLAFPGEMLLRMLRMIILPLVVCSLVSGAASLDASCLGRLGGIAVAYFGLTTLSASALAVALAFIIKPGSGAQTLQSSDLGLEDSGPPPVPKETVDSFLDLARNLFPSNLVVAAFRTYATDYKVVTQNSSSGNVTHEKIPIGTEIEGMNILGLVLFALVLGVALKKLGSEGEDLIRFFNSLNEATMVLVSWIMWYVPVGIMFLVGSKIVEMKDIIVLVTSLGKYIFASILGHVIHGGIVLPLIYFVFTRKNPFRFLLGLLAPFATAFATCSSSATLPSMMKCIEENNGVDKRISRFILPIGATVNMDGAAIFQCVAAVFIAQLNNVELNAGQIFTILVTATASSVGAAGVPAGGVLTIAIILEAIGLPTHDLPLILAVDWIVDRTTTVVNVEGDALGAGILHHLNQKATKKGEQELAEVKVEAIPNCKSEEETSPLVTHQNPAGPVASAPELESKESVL
Protocol: as §3

[4] = system: ASCT1/2; assay: [3H]L-serine transport into primary rat hippocampal astrocytes; format: cell-based; settings: for pIC50: inhibition of [3H]L-serine transport, rat astrocytes, 6-12 point curves, n of 3-4, read-out: Astro ASCT1/2 IC50; for inhibition of radiolabelled substrate transport: rat brain astrocytes in culture
Protocol: Cell-based assays: the transport of [^3H]L- or D-serine was measured in primary cultures of rat hippocampal astrocytes or in human embryonic kidney (HEK) cells expressing ASCT transporter sub-types. For the astrocyte assays, cells were plated on either 24- or 96-well plates at a density of 50,000 cells per well. For the HEK assays, cells were plated on coated 96-well plates at a density of 80,000 cells/well. Assays were conducted in duplicate at room temperature in assay buffer consisting of: NaCl: 150 mM, KCl: 2 mM; MgCl2: 1 mM; CaCl2: 1 mM; HEPES: Tris buffer: 10 mM, pH7.4. To assess the sodium-dependence of transport, NaCl was replaced in the assay buffer by equimolar choline chloride. Following aspiration of growth medium and 2 washes with assay buffer, cells were incubated with [^3H]L- or D-serine at a final concentration of 1 μM for 5 min (astrocytes) or 1 min (HEK cells), after which the incubation medium was aspirated and the cells washed twice with ice-cold assay buffer. Cells containing radiolabel were solubilized in 100 μl of 1% Triton-X100 and an aliquot counted in a beta counter. IC50 values were determined over a range of at least 6 concentrations and derived from curve-fitting algorithms available in GraphPad Prism 4. Table 2 reflects the IC50 values for the inhibition of [^3H]L-serine transport into astrocytes and HEK cells expressing recombinant human ASCT1 or ASCT2. Values are IC50's in μM from 6-12 point inhibition curves, with an n of 3-4.

[5] = target: T2, human ASCT1; assay: Whole cell patch-clamp transport currents in HEK cells expressing human ASCT1; format: cell-based; settings: for effect on substrate-evoked inward current: HEK ASCT1, with 0.3 mM L-serine; for current in the absence of applied substrate: HEK ASCT1, without L-serine
Protocol: as §1, §2

[6] = system: LTP in primary visual cortex; assay: Visual cortex slice physiology: long-term potentiation (LTP); design: species or system rat
Protocol: Following decapitation of the rat, the brain was rapidly removed and immersed in ice-cold artificial cerebrospinal fluid (ACSF) containing 124 mM NaCl, 3 mM KCl, 1.25 mM KH2PO4, 3.4 mM CaCl2, 2.5 mM MgSO4, 26 mM NaHCO3, and 10 mM D-glucose. A block of visual cortex was created by removing the frontal ⅔ portion of the brain and the cerebellum. Coronal visual cortex slices of 375 μm were prepared from adult Sprague Dawley (SD) rats using a vibratome (VT 1000 S; Leica). The slices were maintained in an interface recording chamber perfused with preheated ACSF. Slices were continuously perfused with this solution at a rate of 1.00-1.50 ml/min while the surface of the slices was exposed to warm, humidified 95% O2/5% CO2 and maintained at 31±1° C. Visual cortex slices were allowed to recover for 1 hr before recording began. A single stimulating and recording electrode were placed in layer IV and III, respectively, to generate and record a field excitatory postsynaptic potentials (fEPSPs). […] This was repeated 2 additional times with a 1 minute intertrain interval, and the level of LTP was recorded for at least 30 min. Changes in amplitude of the synaptic response were used to measure the extent of LTP because it was determined to be the more consistent parameter than the slope of the response. […]

O=C(O)[C@@H]1NC[C@H](OCc2cccc(Oc3ccccc3)c2)[C@H]1O (stereo in doubt) [(2R,3S,4S)-3-hydroxy-4-[(3-phenoxybenzyl)oxy]pyrrolidine-2-carboxylic acid]
effect on substrate-evoked inward current [1]: inhibited the substrate-evoked inward current | current in the absence of applied substrate [1]: evoked an outward current | pIC50 [2]: 4.19 | pIC50 [3]: 4.33 | pIC50 [4]: 4.97 | inhibition of radiolabelled substrate transport [4]: completely inhibited | effect on substrate-evoked inward current [5]: inhibited the substrate-evoked inward current | current in the absence of applied substrate [5]: evoked an outward current

O=C(O)[C@@H]1NC[C@H](OCc2ccc(-c3ccccc3)cc2)[C@H]1O (stereo in doubt) [(2R,3S,4S)-4-(biphenyl-4-ylmethoxy)-3-hydroxypyrrolidine-2-carboxylic acid]
effect on substrate-evoked inward current [1]: inhibited the substrate-evoked inward current | current in the absence of applied substrate [1]: evoked an outward current | pIC50 [2]: 5.55 | pIC50 [3]: 5.44 | pIC50 [4]: 6.22 | inhibition of radiolabelled substrate transport [4]: completely inhibited | effect on substrate-evoked inward current [5]: inhibited the substrate-evoked inward current | current in the absence of applied substrate [5]: evoked an outward current | effect on LTP in rat visual cortex slice ([6]; 0.1 and 0.3 μM): dose-dependently facilitates long-term potentiation (LTP) | concentration that enhanced LTP in visual cortex ([6]; rat visual cortex slice, as low as): ≤ 0.1 µM
